{"source": "paper PMC4990184", "about": "“The Tp0684 (MglB-2) Lipoprotein of Treponema pallidum: A Glucose-Binding Protein with Divergent Topology” (PLoS ONE, 2016)", "key": {"[1]": {"target": "T1, TpMglB-2 (Tp0684), wild-type (Treponema pallidum, UniProt Q08255)", "T1 construct": "the DNA fragment encoding amino acid residues 11–378 (cloned without the post-translationally modified N-terminal Cys); made in house; host or cells: E. coli BL21 AI (co-transformed with pGroESL)", "T1 sequence (Q08255 36-403)": "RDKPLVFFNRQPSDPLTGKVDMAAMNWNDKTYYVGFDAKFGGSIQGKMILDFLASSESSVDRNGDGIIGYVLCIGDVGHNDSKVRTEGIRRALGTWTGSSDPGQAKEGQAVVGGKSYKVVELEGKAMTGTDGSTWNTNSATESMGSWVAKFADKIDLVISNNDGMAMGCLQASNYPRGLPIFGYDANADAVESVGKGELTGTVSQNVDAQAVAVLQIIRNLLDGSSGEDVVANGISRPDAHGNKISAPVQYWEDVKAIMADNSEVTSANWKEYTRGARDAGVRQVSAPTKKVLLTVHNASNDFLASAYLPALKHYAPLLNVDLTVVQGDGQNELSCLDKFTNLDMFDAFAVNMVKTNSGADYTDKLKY", "assay": "Isothermal titration calorimetry (ITC) of sugars into wild-type TpMglB-2", "format": "binding", "conditions": "for binding heats in ITC control titrations: wild-type TpMglB-2, qualitative", "procedure": "(§1) TpMglB-2 was dialyzed exhaustively against Assay Buffer (10 mM sodium phosphate, pH 7.4, 100 mM NaCl). The sugars to be titrated were dissolved in the same buffer. All titrations were carried out in an iTC200 calorimeter (Malvern, Malvern, UK). A typical titration scheme featured 19 or 20 2-μL injections of 500 μM of the monosaccharide into 50 μM protein in the ca. 200-μL stirred interaction cell. However, the concentrations were sometimes altered to sample a wider range of concentration space. Three titrations were performed per sugar, and the resulting thermograms were serially integrated using NITPIC v. 1.1.7 [54, 78]. All titrations for a given sugar were globally analyzed in ITCsy[55], and confidence intervals were obtained using the error-surface projection method. All ITC illustrations were rendered in GUSSI [79]."}, "TpMglB-2 [2]": {"target": "T2, TpMglB-2 (Treponema pallidum, UniProt Q08255)", "T2 construct": "the DNA fragment encoding amino acid residues 11–378 (cloned without the post-translationally modified N-terminal Cys); made in house; host or cells: E. coli BL21 AI (co-transformed with pGroESL)", "T2 sequence (Q08255 36-403)": "as above", "assay": "Differential scanning fluorimetry (DSF) carbon-source screen", "format": "binding", "conditions": "for binding in the DSF assay: qualitative; for shift in Tm, app: 10 μM protein, BIOLOG compounds, vs water control", "description": "The unconventional structural organization and the altered Ca^2+-binding site of TpMglB-2 provoked a question: does such a structurally rearranged LBP function similarly to other LBPs? To address this question, we first examined ligand binding. In a previous study on TpMglB-2, we reported that the protein preferred D-glucose and D-galactose over a small number of other monsaccharide carbon sources. However, we wished to interrogate a larger panel of such sources to investigate whether another ligand would bind to the protein with even higher affinity. We thus employed differential scanning fluorimetry (DSF) as a means to probe for ligand binding. This method examines the apparent melting temperature (Tm, app) of the protein; the “apparent” nomenclature is added in recognition of the fact that the reversibility of the transition was not tested in these experiments. Presumably, in the presence of a specifically bound ligand, the protein’s structure will be stabilized, resulting in a higher Tm, app. We used this plate-based method to qualitatively assay for the binding of 190 carbon sources. Only D-glucose and D-galactose caused significant shifts (> 1.5° C) in Tm, app (Fig 5). Thus, these were the only candidate compounds that were selected for additional study.\nThe thermal stability of TpMglB-2 in the presence of various putative ligands was determined in a 96-well PCR-plate (Bio-Rad Laboratories, Inc., Hercules, CA). The assumption was that binding ligands would enhance the thermal stability of the protein. For carbon-source screening, Biolog's Phenotype MicroArray (PM) compounds supplied in 96-well microplates (BIOLOG, Inc., Hayward, CA) were dissolved in 50 μL of sterile water to obtain a final concentration of around 10–20 mM. Screenings were performed with plates PM1 and PM2A. Each plate contains 95 compounds and a blank (no ligand) control. The complete plate contents are available at the BIOLOG website (www.biolog.com).\nEach 20 μL standard assay mixture in a 96-well PCR-plate contained 10 μM purified protein and SYPRO Orange (Life Technologies) at 5x concentration in a buffer containing 10 mM phosphate, 100 mM NaCl, pH 7.4. Two μL of the resuspended BIOLOG compounds were added to each well. The plate was sealed and placed in a BioRad CFX96 real-time PCR detector coupled to a C1000 thermal cycler (BioRad Laboratories, Inc., Hercules, CA), and the fluorescence of the dye was monitored as a function of temperature from 4° C to 95° C. Fluorescence readings were recorded every 0.5° C. The data were transformed to–dF/dT v. T curves, and the abscissas of the minima in these curves were defined as the apparent melting temperatures (Tm, app). Significant positive shifts in Tm, app were taken as positive results and were confirmed using ITC."}, "TpMglB-2 [3]": {"target": "T2, TpMglB-2"}, "TpMglB-2 N19A": {"target": "T3, TpMglB-2 N19A (Treponema pallidum, UniProt Q08255, N44A)", "T3 construct": "the DNA fragment encoding amino acid residues 11–378 (cloned without the post-translationally modified N-terminal Cys); made in house; host or cells: E. coli BL21 AI", "T3 sequence (Q08255 36-403 N44A)": "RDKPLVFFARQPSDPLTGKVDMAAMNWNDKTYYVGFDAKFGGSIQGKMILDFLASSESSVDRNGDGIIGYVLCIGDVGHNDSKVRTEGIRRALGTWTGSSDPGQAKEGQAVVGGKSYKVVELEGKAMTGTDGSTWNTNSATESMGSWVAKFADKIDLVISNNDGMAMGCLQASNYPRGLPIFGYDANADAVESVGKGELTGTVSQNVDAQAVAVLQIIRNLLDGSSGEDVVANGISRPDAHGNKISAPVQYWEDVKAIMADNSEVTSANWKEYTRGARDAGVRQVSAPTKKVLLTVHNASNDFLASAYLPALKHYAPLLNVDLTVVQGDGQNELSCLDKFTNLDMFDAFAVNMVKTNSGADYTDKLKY", "assay": "ITC of D-glucose into TpMglB-2 N19A variant", "format": "binding", "design": "key: NH: No observable heat of ligand binding", "procedure": "(§2) For the construction of the recombinant TpMglB-2 variants, the N19A, W145A, D195A and F313A mutation was individually introduced into the plasmid carrying the wild-type tp0684 sequence using the QuikChange site-directed mutagenesis kit (Agilent Technologies, Santa Clara, CA). The mutation was confirmed by DNA sequencing. The mutant protein was expressed and purified as described above. Protein concentrations were determined in buffer A (20 mM Hepes, 0.1 M NaCl, pH 7.5, 2 mM n-Octyl-β-D-glucopyranoside) using spectrophotometry. Extinction coefficients were calculated using the Protparam tool of ExPASy (www.expasy.org).\nas §1, with “All ITC illustrations were rendered in GUSSI [79].” left out"}, "TpMglB-2 W145A": {"target": "T4, TpMglB-2 W145A (Treponema pallidum, UniProt Q08255, W170A)", "T4 construct": "the DNA fragment encoding amino acid residues 11–378 (cloned without the post-translationally modified N-terminal Cys); made in house; host or cells: E. coli BL21 AI", "T4 sequence (Q08255 36-403 W170A)": "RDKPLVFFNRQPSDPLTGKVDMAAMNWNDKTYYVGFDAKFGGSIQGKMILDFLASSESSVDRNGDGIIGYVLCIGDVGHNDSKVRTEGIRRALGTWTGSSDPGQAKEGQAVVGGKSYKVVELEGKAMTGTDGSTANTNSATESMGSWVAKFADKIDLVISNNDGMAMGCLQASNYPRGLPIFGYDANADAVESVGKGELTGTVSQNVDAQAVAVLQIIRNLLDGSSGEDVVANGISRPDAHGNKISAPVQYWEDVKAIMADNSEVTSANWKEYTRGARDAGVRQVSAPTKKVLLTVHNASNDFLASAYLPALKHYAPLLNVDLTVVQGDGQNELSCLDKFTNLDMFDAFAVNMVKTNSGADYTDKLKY", "assay": "ITC of D-glucose into TpMglB-2 W145A variant", "format": "binding", "procedure": "as §2\nas §1, with “All ITC illustrations were rendered in GUSSI [79].” left out"}, "TpMglB-2 D195A": {"target": "T5, TpMglB-2 D195A (Treponema pallidum, UniProt Q08255, D220A)", "T5 construct": "the DNA fragment encoding amino acid residues 11–378 (cloned without the post-translationally modified N-terminal Cys); made in house; host or cells: E. coli BL21 AI", "T5 sequence (Q08255 36-403 D220A)": "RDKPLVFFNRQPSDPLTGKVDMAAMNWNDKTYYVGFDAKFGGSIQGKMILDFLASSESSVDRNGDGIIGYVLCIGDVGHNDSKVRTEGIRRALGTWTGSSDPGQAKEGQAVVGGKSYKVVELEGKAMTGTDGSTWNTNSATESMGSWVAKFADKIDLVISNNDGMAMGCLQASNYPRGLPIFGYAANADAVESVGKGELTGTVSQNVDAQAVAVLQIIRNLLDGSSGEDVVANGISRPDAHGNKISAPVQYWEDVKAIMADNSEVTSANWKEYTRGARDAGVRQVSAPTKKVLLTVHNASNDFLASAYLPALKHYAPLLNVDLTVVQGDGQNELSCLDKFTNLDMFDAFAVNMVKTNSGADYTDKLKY", "assay": "ITC of D-glucose into TpMglB-2 D195A variant", "format": "binding", "design": "key: NH: No observable heat of ligand binding", "procedure": "as §2\nas §1, with “All ITC illustrations were rendered in GUSSI [79].” left out"}, "TpMglB-2 F313A": {"target": "T6, TpMglB-2 F313A (Treponema pallidum, UniProt Q08255, F338A)", "T6 construct": "the DNA fragment encoding amino acid residues 11–378 (cloned without the post-translationally modified N-terminal Cys); made in house; host or cells: E. coli BL21 AI", "T6 sequence (Q08255 36-403 F338A)": "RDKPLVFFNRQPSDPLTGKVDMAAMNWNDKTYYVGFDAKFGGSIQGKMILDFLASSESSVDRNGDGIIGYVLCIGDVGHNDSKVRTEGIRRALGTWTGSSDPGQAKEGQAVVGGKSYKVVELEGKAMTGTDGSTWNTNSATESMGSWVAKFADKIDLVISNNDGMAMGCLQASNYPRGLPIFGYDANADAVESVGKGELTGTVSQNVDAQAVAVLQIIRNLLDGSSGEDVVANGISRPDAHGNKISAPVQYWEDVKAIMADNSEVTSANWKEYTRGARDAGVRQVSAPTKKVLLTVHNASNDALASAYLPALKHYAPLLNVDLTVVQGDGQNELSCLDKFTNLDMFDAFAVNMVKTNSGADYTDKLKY", "assay": "ITC of D-glucose into TpMglB-2 F313A variant", "format": "binding", "design": "key: NH: No observable heat of ligand binding", "procedure": "as §2\nas §1, with “All ITC illustrations were rendered in GUSSI [79].” left out"}, "TpMglB-2 [4]": {"target": "T2, TpMglB-2", "assay": "Sedimentation velocity analytical ultracentrifugation (conventional SV)", "conditions": "100 μM D-glucose, 20° C; 95% confidence interval in brackets; apo-TpMglB-2 3.212 S", "procedure": "Our initial attempt to examine whether this small difference could be detected was conducted using conventional SV. In experiments carried out simultaneously, we sedimented apo-TpMglB-2 and also the protein in the presence of 100 μM D-glucose. By analyzing the data with a non-interacting discrete species model, we could perform a careful analysis using F-statistics that would establish realistic 95% confidence intervals (shown below in brackets) on the refined parameter s. For apo-TpMglB-2, the refined experimental s-value was 3.212 [3.204–3.219] S. The same value of the protein in the presence of D-glucose was 3.292 [3.288–3.297] S. We can estimate the statistical significance of this difference the F-statistic formalism. If we fix the s-value of the apo-protein to that of the liganded protein and repeat the analysis, we arrive at a χ^2 ratio between the two analyses of 1.86. […]\nAll AUC experiments were carried out at 20° C in a Beckman-Coulter Optima XL-I centrifuge (Beckman-Coulter Inc., Indianapolis, IN), and Assay Buffer was used in all cases. […] Centrifugation continued for about 16 h, and concentration-profile data were collected using both absorbance and interference optics. Data were initially analyzed using the c(s) method in SEDFIT [82, 83]. As warranted, data were also analyzed using a discrete-species model in SEDPHAT [62]."}, "TpMglB-2 [5]": {"target": "T2, TpMglB-2", "assay": "Difference sedimentation velocity", "conditions": "for Δs/s¯: 5 mg/mL TpMglB-2, 95% confidence interval in brackets", "procedure": "Minute sedimentation-coefficient differences are readily detected using a method pioneered in H. Schachman’s lab called “difference sedimentation velocity” [64]. This method provides a direct, side-by-side comparison of the sedimentation velocity of two macromolecular solutes. In brief, two samples of 5 mg/mL TpMglB-2 were prepared. To one sample, a non-binding sugar, either D-mannose or D-ribose (these sugars evidenced no binding in neither the DSF nor ITC assays), was introduced, whereas an identical concentration of D-glucose was added to the other. The protein sample with the non-binding sugar was placed in the reference sector of a centrifugation centerpiece, and the sample sector of the same centerpiece was filled with the D-glucose-containing protein solution. Centrifugation was initiated, and Rayleigh laser interferometry was used to monitor the sedimentation. Because this mode of data collection reports on refractive-index differences between the two sectors, the difference between the sedimentation in the two sectors is recorded. This signal (for unequal solution-column heights) will appear roughly as a Gaussian-shaped curve inverted about the radial axis (Fig 8A). If the macromolecular solutes in each sector sediment at different rates, the absolute value of the area of (or, more specifically, the normalized first moment of) this curve will increase as sedimentation continues. This trend reports on the fractional sedimentation-coefficient difference between the solutes in the reference and sample sectors, termed Δs/s¯ , i.e. the change in s normalized by the mean s-value. […]\nFor difference SV studies, a slightly different protocol was followed. […] Sedimentation and sedimentation differences were monitored using the interference optics only; scans were obtained every 60 s for almost 17 h.\nAs presented by the data-acquisition software, interference data have the amount of fringe displacement, J, on the y-axis and the radius from the center of rotation on x-axis (r). In this case, of course, the difference in fringe displacement, ΔJ, was measured. […]"}}, "note": "Like-named read-outs stand apart in the source and are kept apart here."}
{"molecule": "O=C[C@H](O)[C@H](O)[C@H](O)CO", "note": "[D-ribose, reference compound]", "values": [{"measurement": "binding heats in ITC control titrations", "setting": "[1]", "result": "failed to exhibit any binding heats"}, {"measurement": "binding in the DSF assay", "setting": "TpMglB-2 [2]", "result": "failed to bind"}]}
{"molecule": "OC[C@H]1OC(O)[C@@H](O)[C@@H](O)[C@@H]1O", "note": "(stereo partly drawn) [D-Mannose, reference compound]", "values": [{"measurement": "binding heats in ITC control titrations", "setting": "[1]", "result": "failed to exhibit any binding heats"}, {"measurement": "binding in the DSF assay", "setting": "TpMglB-2 [2]", "result": "failed to bind"}]}
{"molecule": "O=C[C@H](O)[C@@H](O)[C@@H](O)[C@H](O)CO", "note": "[D-galactose]", "values": [{"measurement": "KD for D-galactose relative to that of D-glucose", "setting": "[1]; wild-type TpMglB-2", "result": 30, "unit": "fold"}, {"measurement": "shift in Tm, app", "setting": "TpMglB-2 [2]", "result": "> 1.5", "unit": "°C"}, {"measurement": "Kd", "setting": "TpMglB-2 [3]; read-out: equilibrium dissociation constant; similar TpMglB-2 construct, 20 mM NaCl; cited from earlier work", "result": 250, "unit": "nM"}]}
{"molecule": "OC[C@H]1OC(O)[C@H](O)[C@@H](O)[C@@H]1O", "note": "(stereo partly drawn) [D-glucose]", "values": [{"measurement": "Kd", "setting": "[1]; wild-type TpMglB-2, 10 mM sodium phosphate pH 7.4, 100 mM NaCl, 68.3% confidence intervals in brackets", "result": 1100, "unit": "nM"}, {"measurement": "KD", "setting": "TpMglB-2 N19A", "result": "NH^b"}, {"measurement": "KD for glucose binding of W145A relative to the wild-type protein", "setting": "TpMglB-2 W145A", "result": "tenfold higher"}, {"measurement": "Kd", "setting": "TpMglB-2 W145A; W145A variant, 68.3% confidence intervals in brackets", "result": 12700, "unit": "nM"}, {"measurement": "KD", "setting": "TpMglB-2 D195A", "result": "NH"}, {"measurement": "KD", "setting": "TpMglB-2 F313A", "result": "NH"}, {"measurement": "shift in Tm, app", "setting": "TpMglB-2 [2]", "result": "> 1.5", "unit": "°C"}, {"measurement": "refined experimental s-value of TpMglB-2 in the presence of the sugar", "setting": "TpMglB-2 [4]", "result": "3.292 [3.288–3.297] S"}, {"measurement": "Δs/s¯", "setting": "TpMglB-2 [5]; D-glucose in sample sector vs D-mannose in reference sector", "result": "about 0.0177 [0.0163, 0.0191]"}, {"measurement": "Δs/s¯", "setting": "TpMglB-2 [5]; D-glucose in sample sector vs D-ribose in reference sector", "result": "0.0180 [0.0163, 0.0197]"}, {"measurement": "observed change in s (Δs/s¯ multiplied by the observed s, 3.2 S)", "setting": "TpMglB-2 [5]; D-glucose vs non-binding sugar", "result": "approximately 0.06 S"}, {"measurement": "Kd", "setting": "TpMglB-2 [3]; similar TpMglB-2 construct, 20 mM NaCl; read-out: equilibrium dissociation constant; cited from earlier work", "result": 150, "unit": "nM"}]}
